The values below come from US9051349B2, “Larazotide acetate compositions” (Alba Therapeutics Corp., priority 2007, dated 2015).

In brackets after ≈: the same amount, converted by molar mass. Read-outs that look alike come from different tables or passages of the source. Residues, ends and D or L forms follow the SMILES beside them. Bounds are passed on as bounds.

For series [1] the following is noted: 40 C/75% RH, 1 and 2 months.
Description: An appropriate amount of amorphous larazotide acetate and crystalline larazotide acetate was used for a stability study to evaluate quality parameters (purity, impurities, assay and ID) for these materials under various storage conditions. Data was collected at two time points, namely at 1 month and at 2 months of storage under the conditions tested.
Data was generated for storage of the three larazotide acetate samples stored at 40 C/75% RH. All three samples were analyzed at 1 and 2 months.
Series [2] is described as follows: physchem. As for the experimental part: Approximate solubilities of Larazotide acetate Form A in different solvents were determined. Aliquots of the test solvent were added to weighed samples of Larazotide. The samples were sonicated to aid in dissolution. Visual inspection was used to determine if a sample had dissolved. The approximate solubility was calculated from the total amount of solvent added.

For series [3] the following is noted: 5% to 95% RH sorption/desorption. From the text: Moisture sorption/desorption data were collected on a VTI SGA-100 Vapor Sorption Analyzer. Sorption and desorption data were collected over a range of 5% to 95% relative humidity (RH) at 10% RH intervals under a nitrogen purge. Samples were not dried prior to analysis. Equilibrium criteria used for analysis were less than 0.0100% weight change in five minutes, with a maximum equilibration time of three hours if the weight criterion was not met. Data were not corrected for the initial moisture content of the samples. NaCl and PVP were used as calibration standards.

The procedure of series [4]:
The stability of the chloride salt was tested at 25° C. without humidity control (in closed bottles). The stability of the acetate salt was determined at 25° C./60% RH.

Series [5] can be described thus: physchem. Particulars: water. The procedure: Solubilities of Larazotide acetate and the corresponding chloride salt in water were tested at 20° C. after 14 hours of vigorous stirring in the presence of residual solid. Concentrations of peptide are measured by standardized HPLC.
Setting [6] is: 25° C. without humidity control (closed bottles), timepoint 0.
Where [7] appears, read: 25° C. without humidity control (closed bottles), timepoint 1.
[8] abbreviates: 25° C. without humidity control (closed bottles), timepoint 2.

Regarding `CC(C)C[C@H](NC(=O)[C@@H](NC(=O)CNC(=O)CN)C(C)C)C(=O)N[C@H](C(=O)N[C@@H](CCC(N)=O)C(=O)N1CCC[C@H]1C(=O)NCC(=O)O)C(C)C` [amorphous larazotide acetate] (H-GGVLVQPG-OH), the “overall rate of degradation” value in series [1] is listed as around 10 % per month.

In general, solubility refers to the concentration that dissolves in the medium under given conditions. Low readings indicate little dissolved substance, high ones much dissolved substance. With `CC(C)C[C@H](NC(=O)[C@@H](NC(=O)CNC(=O)CN)C(C)C)C(=O)N[C@H](C(=O)N[C@@H](CCC(N)=O)C(=O)N1CCC[C@H]1C(=O)NCC(=O)O)C(C)C` [Form A] (H-GGVLVQPG-OH), the solubility in “physchem [2]” ((1:1) DCM/MeOH) was below 3000 µg/mL; in “physchem [2]” ((1:1) Water/ACN), below 3000 µg/mL; in the series “physchem [2]” ((1:1) Water/Dioxane) it was below 3000 µg/mL; in the series “physchem [2]” ((1:1) Water/MeOH) it was below 3000 µg/mL; in the series “physchem [2]” (Acetone), below 4000 µg/mL; in “physchem [2]” (Acetonitrile (ACN)), below 4000 µg/mL. The solubility in “physchem [2]” (Dichloromethane (DCM)), in the series “physchem [2]” (Dimethyl sulfoxide (DMSO)), in “physchem [2]” (Dioxane), in the series “physchem [2]” (Ethanol (EtOH)), in “physchem [2]” (Ethyl acetate (EtOAc)) and in “physchem [2]” (Methanol (MeOH)) was below 4000 µg/mL in each case. In addition, the results for the solubility in “physchem [2]” (Tetrahydrofuran (THF)), in the series “physchem [2]” (Trifluoroethanol (TFE)) and in the series “physchem [2]” (water) were below 4000 µg/mL, 4000 µg/mL (≈ 5.51 mM) and 8000 µg/mL (≈ 11 mM), respectively. For the same molecule, the “solid form by XRPD following the moisture sorption experiment” value in series [3] is recorded as “still Form A”.

Regarding `CC(C)C[C@H](NC(=O)[C@@H](NC(=O)CNC(=O)CN)C(C)C)C(=O)N[C@H](C(=O)N[C@@H](CCC(N)=O)C(=O)N1CCC[C@H]1C(=O)NCC(=O)O)C(C)C` [Larazotide Acetate] (H-GGVLVQPG-OH), the rate of deamidation result in series [4] (25° C./60% RH) was “about 0.05 %/month”. Besides, the “% HPLC Area (purity)” value in series [4] (25° C./60% RH, timepoint 0) is on record as 98.7%; in series [4] (25° C./60% RH, timepoint 1) it was 98.4%; in series [4] (25° C./60% RH, timepoint 2), 98.2%; in series [4] (25° C./60% RH, timepoint 3), 97.7%; in series [4] (25° C./60% RH, timepoint 6) it was 96.1%. In addition, the “Deamidated “Glu” % HPLC area” value in series [4] (25° C./60% RH, timepoint 0) came to 0.19%; in series [4] (25° C./60% RH, timepoint 1), 0.22%; in series [4] (25° C./60% RH, timepoint 2), 0.26%; in series [4] (25° C./60% RH, timepoint 3), 0.40%; in series [4] (25° C./60% RH, timepoint 6) it was 0.60%.

In turn, `CC(C)C[C@H](NC(=O)[C@@H](NC(=O)CNC(=O)CN)C(C)C)C(=O)N[C@H](C(=O)N[C@@H](CCC(N)=O)C(=O)N1CCC[C@H]1C(=O)NCC(=O)O)C(C)C` [Larazotide Chloride] (H-GGVLVQPG-OH) registered a solubility at 14 h in the series “physchem [5]” of at least 300000 µg/mL. In series [4] (25° C. without humidity control (closed bottles)), the rate of deamidation entry is recorded as “about 1 %/month”. Further, the entries for the “% HPLC Area (purity)” value in series [4] (setting [6]), in series [4] (setting [7]) and in series [4] (setting [8]) were 98.4%, 97.8% and 96.1%, respectively. Moreover, the entries for the “Deamidated “Glu” % HPLC area” value in series [4] (setting [6]), in series [4] (setting [7]) and in series [4] (setting [8]) were 1.06%, 1.85% and 3.02%, respectively.
